Experimental data published in PubChem BioAssay (NCI).
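Step 1: Grow cells in 96-well plates. Step 2: Expose to compound for 48 hours at 5 concentrations. Step 3: Interpolate endpoints linearly; if unreached, use highest concentration. The concentration for 50% growth inhibition is given as GI50. TGI denotes the concentration required for complete inhibition of growth.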

Tests used:
Test in all cases: DTP human tumour cell line panel, 48 h
HOP-62 NSCLC = test system: HOP-62 NSCLC
KM12 colon = test system: KM12 colon
MALME-3M melanoma = test system: MALME-3M melanoma
NCI-H460 lung = test system: NCI-H460 lung
OVCAR-8 ovarian = test system: OVCAR-8 ovarian
RXF 393 renal = test system: RXF 393 renal
SN12C renal = test system: SN12C renal
SR leukemia = test system: SR leukemia
DMS 114 small cell lung = test system: DMS 114 small cell lung
M19-MEL melanoma = test system: M19-MEL melanoma

Row | SMILES | GI50 (HOP-62 NSCLC) | TGI (HOP-62 NSCLC) | GI50 (KM12 colon) | TGI (KM12 colon) | GI50 (MALME-3M melanoma) | TGI (MALME-3M melanoma) | GI50 (NCI-H460 lung) | TGI (NCI-H460 lung) | GI50 (OVCAR-8 ovarian) | TGI (OVCAR-8 ovarian) | GI50 (RXF 393 renal) | TGI (RXF 393 renal) | GI50 (SN12C renal) | TGI (SN12C renal) | GI50 (SR leukemia) | TGI (SR leukemia) | TGI (DMS 114 small cell lung) | TGI (M19-MEL melanoma)
1 | ClCCn1c(CCl)nc2ccc(Cl)cc21 | 1.58 µM | 3.3 µM | 1.91 µM | 4.33 µM | 0.46 µM | 1.89 µM | 0.955 µM | 4.59 µM | 0.338 µM | 1.6 µM | 0.379 µM | 1.34 µM | 0.257 µM | 0.708 µM | 0.232 µM | 4.32 µM | – | –
2 | COc1ccc(N2C(C)=C(C#N)C34C(=O)N(c5ccccc5)C(=O)C3=C(O)C=CC24O)cc1 (configuration not stated) | 22.7 µM | 75.8 µM | 10 µM | 26.6 µM | 19.2 µM | 53.4 µM | 14.6 µM | 61.4 µM | 23.3 µM | > 100 µM | 3.15 µM | 14.7 µM | 10 µM | 21.9 µM | 5.98 µM | 50.4 µM | – | –
3 | COc1cc(/C=C2\C(=O)N(C(=O)Cc3ccccc3)N=C2C)ccc1O | – | > 100 µM | – | > 100 µM | – | > 100 µM | – | – | – | > 100 µM | – | – | – | > 100 µM | – | > 100 µM | > 100 µM | > 100 µM
4 | CN1CCN(CCc2cccc(C(=O)c3cnn(-c4ccc(F)cc4)c3N)c2)CC1 | > 25 µM | > 25 µM | > 25 µM | > 25 µM | > 25 µM | > 25 µM | > 25 µM | > 25 µM | > 25 µM | > 25 µM | > 25 µM | > 25 µM | > 25 µM | > 25 µM | > 25 µM | > 25 µM | – | –
5 | CCN(Cc1ccc(F)c(F)c1)c1ccc(CO)c(Cl)c1 | 1.71 µM | 17.4 µM | 13.9 µM | 28.4 µM | 17.2 µM | 33.3 µM | 0.253 µM | 10.7 µM | 11.9 µM | 27.9 µM | 2.73 µM | 15.9 µM | 11 µM | 23.9 µM | 20.2 µM | 52.5 µM | – | –
6 | O=C(Cn1ccc(=O)[nH]c1=O)Nc1ccc(C(=O)O)c(O)c1 | – | > 100 µM | – | > 100 µM | – | > 100 µM | – | > 100 µM | – | > 100 µM | – | > 100 µM | – | > 100 µM | – | > 100 µM | – | –
7 | O=CNc1c(Cl)cc2c(c1Cl)Cc1cc([N+](=O)[O-])ccc1-2 | 5.76 µM | > 67.5 µM | 2.51 µM | 11.9 µM | 3.85 µM | > 100 µM | 2.88 µM | 39.5 µM | 11.6 µM | > 100 µM | 10.8 µM | 46.4 µM | 14.4 µM | > 100 µM | 2.61 µM | > 63.1 µM | – | –
8 | COC(=O)CCC1CCc2c(OC)ccc(O)c2C1=O (configuration not stated) | – | > 100 µM | – | > 100 µM | – | > 100 µM | – | > 100 µM | – | > 100 µM | – | > 100 µM | – | > 100 µM | – | > 100 µM | – | > 100 µM
9 | Cc1ccc(S(=O)(=O)N2CCSCCSCCSCCSCC2)cc1 | – | > 57 µM | – | > 100 µM | – | > 100 µM | – | > 100 µM | – | 48.4 µM | – | > 45.9 µM | – | > 96.8 µM | – | > 100 µM | – | –
10 | CN(CCCN)CCCNc1nc2ccccc2c2[nH]c3ccccc3c12 | 0.179 µM | 0.683 µM | 0.0513 µM | 0.314 µM | 0.115 µM | 0.325 µM | 0.304 µM | 1.17 µM | 0.0825 µM | 0.496 µM | 0.109 µM | 0.515 µM | 0.119 µM | 0.606 µM | 0.381 µM | 2.25 µM | – | –
11 | COc1c(CCC[P+](c2ccccc2)(c2ccccc2)c2ccccc2)cc2c(c1OC)OCO2 | 3.42 µM | 14.5 µM | 0.643 µM | 7.48 µM | 0.599 µM | 10.2 µM | 1.45 µM | 4.56 µM | 2.66 µM | > 100 µM | 2.05 µM | 11.6 µM | 2.42 µM | 10.4 µM | 1.07 µM | 15 µM | – | –
12 | N#CC(C(=O)/C(=N/NC(=O)c1ccccc1O)C(C#N)c1ccc(Cl)cc1)c1ccc(Cl)cc1 (configuration not stated) | – | 38.7 µM | – | 30 µM | – | 25.5 µM | – | 29.7 µM | – | 26.3 µM | – | 16.4 µM | – | 26.4 µM | – | – | 69.7 µM | 55.3 µM
13 | COC(=O)/C=C/C=C(c1ccccc1)c1ccccc1 | 4.14 µM | 40.9 µM | 3.67 µM | 27.4 µM | 4.23 µM | 30.4 µM | 3.67 µM | 15.2 µM | 15 µM | > 100 µM | 6.24 µM | 30 µM | 7.83 µM | > 100 µM | 4.51 µM | > 100 µM | – | –
14 | COc1ccccc1NC(=O)C1=C(C)NC(C)=C(C(=O)Nc2ccccc2OC)C1c1ccccc1F | – | > 100 µM | – | > 100 µM | – | > 100 µM | – | > 100 µM | – | > 100 µM | – | – | – | > 100 µM | – | > 100 µM | > 100 µM | –
15 | CN(C(=O)C12C3C4C5C3C1(C(=O)O)C5C42)C(C)(C)C (configuration not stated) | – | > 100 µM | – | > 100 µM | – | > 100 µM | – | > 100 µM | – | > 100 µM | – | – | – | > 100 µM | – | > 100 µM | 72.6 µM | > 100 µM
16 | Cc1[c-]onc1C.Cc1[c-]onc1C.[Ag].[Ag].[NH-]S(=O)(=O)c1ccc(N=Nc2cc(N=Nc3ccc(S([NH-])(=O)=O)cc3)c3c(NC(=O)C(Cl)Cl)cccc3c2OC(=O)C(Cl)Cl)cc1 | 16.8 µM | 38.9 µM | 7.44 µM | 18.1 µM | 9.07 µM | 21.2 µM | 6.53 µM | 18.1 µM | 10.1 µM | 36.4 µM | 6.47 µM | 15.6 µM | 14.9 µM | > 50 µM | 9.59 µM | 42.5 µM | – | –
17 | CCCc1[nH]nc(CCC(=O)N(Cc2ccccc2)Cc2ccccc2)c1CC | – | > 100 µM | – | > 100 µM | – | > 100 µM | – | > 100 µM | – | > 100 µM | – | > 100 µM | – | > 100 µM | – | – | > 100 µM | > 100 µM
